# From patent US12414907B2, “Peptide having hair growth promoting activity and use thereof” (CAREGEN CO., LTD., priority 2019, dated 2025)
# How the values were obtained:
# ERK = assay: Western blotting of phosphorylated ERK in dermal papilla cells; type: cell-based, human; conditions: peptide 0.5 uM, 5 uM or 50 uM, serum-free medium, 30 minutes; FIG. 2
# Procedure: (§1) The effect of the peptide consisting of the amino acid sequence of SEQ ID NO: 1 on the activation of proliferation-related factors in hair follicle cells was to be confirmed. In detail, human dermal papilla cells were seeded in a 6-well plate at a density of 4×10^5 cells/well, and cultured for 16 hours. The culture medium was replaced with a serum-free medium, and the peptide was added thereto at a concentration of 0.5 uM, 5 uM, or 50 uM, and the cells were cultured for 30 minutes. Here, as a positive control group, 5 uM of Minoxidil was treated. Cell lysates were prepared by harvesting the cell, and then, western blotting was performed with respect to phosphorylated ERK and phosphorylated AKT by using p-ERK antibodies and p-AKT antibodies (Santacruz biotechnology, USA).
# DKK-1 = assay: Western blotting of DKK-1 expression in DHT-stimulated dermal papilla cells; type: cell-based, human; conditions: DHT 10 ug/ml as stimulator, peptide 0.5 uM, 5 uM or 50 uM, 24 hours; FIG. 4
# Procedure: The inhibitory effect of the peptide consisting of the amino acid sequence of SEQ ID NO: 1 on the expression of DKK-1, which is a hair loss-related factor, in hair follicle cells was to be confirmed. In detail, human dermal papilla cells were seeded in a 6-well plate at a density of 4x10^5 cells/well, and cultured for 16 hours. After the culture medium was replaced with a serum-free medium, dihydrotestosterone (DHT) as a stimulator was added thereto at a concentration of 10 ug/ml while peptide was added thereto at a concentration of 0.5 uM, 5 uM, or 50 uM. Then, the cells were cultured for 24 hours. The cells were harvested and nuclear proteins thereof were isolated by using a nuclear protein extraction kit. Then, western blotting was performed by using DKK-1 antibodies (Santacruz biotechnology, USA). Here, DHT is known as a hair loss hormone that increases the expression of DKK-1, which is a hair loss-inducible factor, by activating an androgen receptor.
# [1] = test system: human hair follicle dermal papilla cells; assay: Proliferation of human hair follicle dermal papilla cells (MTT method); type: cell-based; conditions: peptide 0.5 uM, 5 uM or 50 uM, serum-free medium, 72 hours; FIG. 1
# Procedure: The promoting effect of the peptide consisting of the amino acid sequence of SEQ ID NO: 1 on the proliferation of hair follicle cells was to be confirmed. In detail, human hair follicle dermal papilla cells were seeded in a 96-well plate at a density of 5×10^3 cells/well, and cultured for 16 hours. The culture medium was replaced with a serum-free medium, and the peptide was added thereto at a concentration of 0.5 uM, 5 uM, or 50 uM, and the cells were cultured for 72 hours. Here, as a positive control group, 5 uM of Minoxidil which is used as a hair loss treatment was treated. Afterwards, an MTT method was performed to measure the cell proliferation. In detail, 4 ug/ml of 3-(4,5-dimethylthiazol-2-yl)-2,5-diphenyltetrazolium bromide (MTT) was treated, and 4 hours later, DMSO was treated thereon to dissolve formazan. Then, the absorbance at 560 nm was measured by using a spectrophotometer.
# AKT = assay: Western blotting of phosphorylated AKT in dermal papilla cells; type: cell-based, human; conditions: peptide 0.5 uM, 5 uM or 50 uM, serum-free medium, 30 minutes; FIG. 2
# Procedure: as §1
# TGFβ-1 = assay: PCR of TGFβ-1 expression in dermal papilla cells; type: cell-based, human; conditions: peptide 0.5 uM, 5 uM or 50 uM, serum-free medium, 24 hours, PCR with GAPDH; FIG. 5
# Procedure: The inhibitory effect of the peptide consisting of the amino acid sequence of SEQ ID NO: 1 on the expression of TGFβ-1, which is a hair loss-related factor, in hair follicle cells was to be confirmed. In detail, human dermal papilla cells were seeded in a 6-well plate at a density of 4x10^5 cells/well, and cultured for 16 hours. The culture medium was replaced with a serum-free medium, and the peptide was added thereto at a concentration of 0.5 uM, 5 uM, or 50 uM, and the cells were cultured for 24 hours. Here, as a positive control group, 5 uM of Minoxidil was treated. After the cells were harvested, RNA was extracted therefrom and used for synthesis of cNDA by using a cDNA synthesis kit and PCR pre-mix. TGFβ-1, as an androgen-inducible factor in hair follicle cells, is known to be related to hair loss.
# β-catenin = assay: Western blotting of nuclear β-catenin in dermal papilla cells; type: cell-based, human; conditions: peptide 0.5 uM, 5 uM or 50 uM, serum-free medium, 24 hours, nuclear proteins; FIG. 3
# Procedure: The effect of the peptide consisting of the amino acid sequence of SEQ ID NO: 1 on the activation of a proliferation mechanism of hair follicle cells was to be confirmed. In detail, human dermal papilla cells were seeded in a 6-well plate at a density of 4×10^5 cells/well, and cultured for 16 hours. The culture medium was replaced with a serum-free medium, and the peptide was added thereto at a concentration of 0.5 uM, 5 uM, or 50 uM, and the cells were cultured for 24 hours. Here, as a positive control group, 5 uM of Minoxidil was treated. The cells were harvested and nuclear proteins thereof were isolated by using a nuclear protein extraction kit (Merck, USA). Then, western blotting was performed with respect to β-catenin which is a factor related to proliferation of the dermal papilla cells by using β-catenin antibodies (Santacruz biotechnology, USA).
substance,measurement,setting,value
WQNMRL [SEQ ID NO: 1],phosphorylation of ERK,ERK,induced
same,expression of DKK-1,DKK-1,inhibit the expression of DKK-1
same,"proliferation of human dermal papilla cells (MTT, absorbance at 560 nm)",[1],promoted the proliferation of human dermal papilla cells
same,phosphorylation of AKT,AKT,induced
same,expression of TGFβ-1,TGFβ-1,inhibit the expression of TGFβ-1
same,movement of β-catenin from the cytoplasm to the nucleus,β-catenin,increased
